Experiments:
Format in all cases: in vivo
Veronica persica = assay: Pre-emergence herbicidal action against VERPE
Method in brief: (§1)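 Seeds sown in sandy loam, soil-covered; compound sprayed on soil surface pre-emergence. Application: WP/EC, 600–800 l/ha, 0.2% wetting agent. Readout: visual % damage at 3 weeks.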

Pharbitis purpurea = assay: Post-emergence herbicidal action against PHBPU; conditions: visual assessment about 3 weeks after treatment
Method in brief: (§2)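 Percent herbicidal action is rated by eye about 3 weeks after treatment against untreated controls, where 100% means dead plants and 0% means like controls. Plants in sandy loam are sprayed on green parts at the one-leaf stage with aqueous WP or EC preparations at 600 to 800 l/ha plus 0.2% wetting agent.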

Echinochloa crus-galli [1] = assay: Post-emergence herbicidal action against ECHCG; conditions: visual assessment about 3 weeks after treatment
Method in brief: as §2

Echinochloa crus-galli [2] = assay: Pre-emergence herbicidal action against ECHCG; conditions: 80 g/ha; visual score after 3 weeks vs untreated controls
Method in brief: as §1

Digitaria sanguinalis [3] = assay: Post-emergence herbicidal action against DIGSA
Protocol: Seeds of monocotyledonous and dicotyledonous weed and crop plants are laid out in sandy loam soil in wood-fiber pots, covered with soil and cultivated in a greenhouse under good growth conditions. 2 to 3 weeks after sowing, the test plants are treated at the one-leaf stage. The compounds of the invention, formulated in the form of wettable powders (WP) or as emulsion concentrates (EC), are then sprayed onto the green parts of the plants in the form of an aqueous suspension or emulsion at a water application rate equivalent to 600 to 800 l/ha, with addition of 0.2% wetting agent. After the test plants have been left to stand in the greenhouse under optimal growth conditions for about 3 weeks, the action of the preparations is assessed visually in comparison to untreated controls (herbicidal action in percent (%): 100% activity=the plants have died, 0% activity=like control plants). […] The tables below illustrate, in an illustrative manner, the post-emergence herbicidal action of the compounds of the invention, the herbicidal activity being stated in percent.

Digitaria sanguinalis [4] = assay: Pre-emergence herbicidal action against DIGSA
Method in brief: as §1

Avena fatua [5] = assay: Post-emergence herbicidal action against AVEFA; conditions: 20 g/ha, visual assessment about 3 weeks after treatment
Method in brief: as §2

Abutilon theophrasti = assay: Pre-emergence herbicidal action against ABUTH; conditions: visual score after 3 weeks vs untreated controls
Method in brief: as §1

Setaria viridis [6] = assay: Post-emergence herbicidal action against SETVI; conditions: visual assessment about 3 weeks after treatment
Method in brief: as §2

Alopecurus myosuroides [7] = assay: Post-emergence herbicidal action against ALOMY
Method in brief: as §2

Alopecurus myosuroides [8] = assay: Pre-emergence herbicidal action against ALOMY; conditions: 80 g/ha; visual score after 3 weeks vs untreated controls
Method in brief: as §1

Matricaria inodora [9] = assay: Pre-emergence herbicidal action against MATIN; conditions: visual score after 3 weeks vs untreated controls
Method in brief: as §1

Amaranthus retroflexus [10] = assay: Post-emergence herbicidal action against AMARE; conditions: visual assessment about 3 weeks after treatment
Method in brief: as §2

Setaria viridis [11] = assay: Pre-emergence herbicidal action against SETVI; conditions: 80 g/ha
Method in brief: as §1

Viola tricolor [12] = assay: Post-emergence herbicidal action against VIOTR
Method in brief: as §2

Amaranthus retroflexus [13] = assay: Pre-emergence herbicidal action against AMARE; conditions: visual score after 3 weeks vs untreated controls
Method in brief: as §1

Viola tricolor [14] = assay: Pre-emergence herbicidal action against VIOTR
Method in brief: as §1

Matricaria inodora [15] = assay: Post-emergence herbicidal action against MATIN; conditions: visual assessment about 3 weeks after treatment
Method in brief: as §2

Avena fatua [16] = assay: Pre-emergence herbicidal action against AVEFA; conditions: 80 g/ha; visual score after 3 weeks vs untreated controls
Method in brief: as §1

## CCN(CC)C(=O)c1c(C(F)(F)F)ccc(C(=O)Nc2nnnn2C)c1C [Example 1-31]
Veronica persica; 80 g/ha
  Pre-emergence action against VERPE: 90%
Pharbitis purpurea; 5 g/ha
  Post-emergence action against PHBPU in %: 90%
Pharbitis purpurea; 20 g/ha
  Post-emergence action against PHBPU in %: 90%
Echinochloa crus-galli [1]; 5 g/ha
  Post-emergence action against ECHCG in %: 90%
Echinochloa crus-galli [1]; 20 g/ha
  Post-emergence action against ECHCG in %: 90%
Echinochloa crus-galli [2]
  Pre-emergence action against ECHCG: 80%
Digitaria sanguinalis [3]; 5 g/ha
  Post-emergence action against DIGSA in %: 80%
Digitaria sanguinalis [3]; 20 g/ha
  Post-emergence action against DIGSA in %: 90%
Digitaria sanguinalis [4]; 20 g/ha
  Pre-emergence action against DIGSA: 100%
Digitaria sanguinalis [4]; 80 g/ha
  Pre-emergence action against DIGSA: 100%
Avena fatua [5]
  Post-emergence action against AVEFA in %: 80%
Abutilon theophrasti; 80 g/ha
  Pre-emergence action against ABUTH: 100%
Setaria viridis [6]; 5 g/ha
  Post-emergence action against SETVI in %: 90%
Setaria viridis [6]; 20 g/ha
  Post-emergence action against SETVI in %: 100%
Alopecurus myosuroides [7]; 5 g/ha
  Post-emergence action against ALOMY: 80%
Alopecurus myosuroides [7]; 20 g/ha
  Post-emergence action against ALOMY: 90%
Alopecurus myosuroides [8]
  Pre-emergence action against ALOMY: 100%
Matricaria inodora [9]; 80 g/ha
  Pre-emergence action against MATIN: 100%
Amaranthus retroflexus [10]; 5 g/ha
  Post-emergence action against AMARE in %: 90%
Amaranthus retroflexus [10]; 20 g/ha
  Post-emergence action against AMARE in %: 90%
Setaria viridis [11]
  Pre-emergence action against SETVI: 100%
Viola tricolor [12]; 5 g/ha
  Post-emergence action against VIOTR in %: 80%
Viola tricolor [12]; 20 g/ha
  Post-emergence action against VIOTR in %: 90%
Amaranthus retroflexus [13]; 20 g/ha
  Pre-emergence action against AMARE: 100%
Amaranthus retroflexus [13]; 80 g/ha
  Pre-emergence action against AMARE: 100%
Viola tricolor [14]; 80 g/ha
  Pre-emergence action against VIOTR: 100%

## CCN(C(=O)c1c(C(F)(F)F)ccc(C(=O)Nc2nnnn2C)c1C)C1CC1 [Example 1-32]
Pharbitis purpurea; 5 g/ha
  Post-emergence action against PHBPU in %: 80%
Pharbitis purpurea; 20 g/ha
  Post-emergence action against PHBPU in %: 90%
Echinochloa crus-galli [1]; 5 g/ha
  Post-emergence action against ECHCG in %: 100%
Echinochloa crus-galli [1]; 20 g/ha
  Post-emergence action against ECHCG in %: 100%
Echinochloa crus-galli [2]
  Pre-emergence action against ECHCG: 90%
Digitaria sanguinalis [3]; 5 g/ha
  Post-emergence action against DIGSA in %: 90%
Digitaria sanguinalis [3]; 20 g/ha
  Post-emergence action against DIGSA in %: 90%
Digitaria sanguinalis [4]; 20 g/ha
  Pre-emergence action against DIGSA: 90%
Digitaria sanguinalis [4]; 80 g/ha
  Pre-emergence action against DIGSA: 100%
Avena fatua [5]
  Post-emergence action against AVEFA in %: 80%
Abutilon theophrasti; 80 g/ha
  Pre-emergence action against ABUTH: 100%
Setaria viridis [6]; 5 g/ha
  Post-emergence action against SETVI in %: 80%
Setaria viridis [6]; 20 g/ha
  Post-emergence action against SETVI in %: 90%
Alopecurus myosuroides [7]; 5 g/ha
  Post-emergence action against ALOMY: 80%
Alopecurus myosuroides [7]; 20 g/ha
  Post-emergence action against ALOMY: 90%
Alopecurus myosuroides [8]
  Pre-emergence action against ALOMY: 90%
Matricaria inodora [9]; 80 g/ha
  Pre-emergence action against MATIN: 100%
Amaranthus retroflexus [10]; 5 g/ha
  Post-emergence action against AMARE in %: 90%
Amaranthus retroflexus [10]; 20 g/ha
  Post-emergence action against AMARE in %: 100%
Setaria viridis [11]
  Pre-emergence action against SETVI: 100%
Viola tricolor [12]; 5 g/ha
  Post-emergence action against VIOTR in %: 100%
Viola tricolor [12]; 20 g/ha
  Post-emergence action against VIOTR in %: 100%
Amaranthus retroflexus [13]; 20 g/ha
  Pre-emergence action against AMARE: 90%
Amaranthus retroflexus [13]; 80 g/ha
  Pre-emergence action against AMARE: 100%
Viola tricolor [14]; 20 g/ha
  Pre-emergence action against VIOTR: 80%
Viola tricolor [14]; 80 g/ha
  Pre-emergence action against VIOTR: 100%

## CCn1nnnc1NC(=O)c1ccc(C(F)(F)F)c(C(=O)N(C)C2CC2)c1C [Example 2-21]
Veronica persica; 20 g/ha
  Pre-emergence action against VERPE: 80%
Veronica persica; 80 g/ha
  Pre-emergence action against VERPE: 100%
Matricaria inodora [15]; 5 g/ha
  Post-emergence action against MATIN in %: 80%
Matricaria inodora [15]; 20 g/ha
  Post-emergence action against MATIN in %: 90%
Pharbitis purpurea; 20 g/ha
  Post-emergence action against PHBPU in %: 90%
Echinochloa crus-galli [1]; 5 g/ha
  Post-emergence action against ECHCG in %: 90%
Echinochloa crus-galli [1]; 20 g/ha
  Post-emergence action against ECHCG in %: 90%
Echinochloa crus-galli [2]
  Pre-emergence action against ECHCG: 100%
Digitaria sanguinalis [3]; 5 g/ha
  Post-emergence action against DIGSA in %: 80%
Digitaria sanguinalis [3]; 20 g/ha
  Post-emergence action against DIGSA in %: 90%
Digitaria sanguinalis [4]; 20 g/ha
  Pre-emergence action against DIGSA: 100%
Digitaria sanguinalis [4]; 80 g/ha
  Pre-emergence action against DIGSA: 100%
Abutilon theophrasti; 80 g/ha
  Pre-emergence action against ABUTH: 100%
Setaria viridis [6]; 5 g/ha
  Post-emergence action against SETVI in %: 80%
Setaria viridis [6]; 20 g/ha
  Post-emergence action against SETVI in %: 100%
Avena fatua [16]
  Pre-emergence action against AVEFA: 80%
Alopecurus myosuroides [7]; 5 g/ha
  Post-emergence action against ALOMY: 80%
Alopecurus myosuroides [7]; 20 g/ha
  Post-emergence action against ALOMY: 90%
Matricaria inodora [9]; 20 g/ha
  Pre-emergence action against MATIN: 90%
Matricaria inodora [9]; 80 g/ha
  Pre-emergence action against MATIN: 100%
Amaranthus retroflexus [10]; 5 g/ha
  Post-emergence action against AMARE in %: 100%
Amaranthus retroflexus [10]; 20 g/ha
  Post-emergence action against AMARE in %: 100%
Setaria viridis [11]
  Pre-emergence action against SETVI: 100%
Viola tricolor [12]; 5 g/ha
  Post-emergence action against VIOTR in %: 100%
Viola tricolor [12]; 20 g/ha
  Post-emergence action against VIOTR in %: 100%
Amaranthus retroflexus [13]; 20 g/ha
  Pre-emergence action against AMARE: 100%
Amaranthus retroflexus [13]; 80 g/ha
  Pre-emergence action against AMARE: 100%
Viola tricolor [14]; 20 g/ha
  Pre-emergence action against VIOTR: 100%
Viola tricolor [14]; 80 g/ha
  Pre-emergence action against VIOTR: 100%

## CCn1nnnc1NC(=O)c1ccc(C(F)(F)F)c(C(=O)N(C)C2CC2)c1Cl [Example 2-125]
Matricaria inodora [15]; 20 g/ha
  Post-emergence action against MATIN in %: 90%
Digitaria sanguinalis [3]; 20 g/ha
  Post-emergence action against DIGSA in %: 90%
Digitaria sanguinalis [4]; 80 g/ha
  Pre-emergence action against DIGSA: 100%
Avena fatua [5]
  Post-emergence action against AVEFA in %: 80%
Abutilon theophrasti; 20 g/ha
  Pre-emergence action against ABUTH: 90%
Abutilon theophrasti; 80 g/ha
  Pre-emergence action against ABUTH: 100%
Alopecurus myosuroides [7]; 20 g/ha
  Post-emergence action against ALOMY: 80%
Alopecurus myosuroides [8]
  Pre-emergence action against ALOMY: 100%
Matricaria inodora [9]; 80 g/ha
  Pre-emergence action against MATIN: 100%
Amaranthus retroflexus [10]; 5 g/ha
  Post-emergence action against AMARE in %: 90%
Amaranthus retroflexus [10]; 20 g/ha
  Post-emergence action against AMARE in %: 90%
Setaria viridis [11]
  Pre-emergence action against SETVI: 100%
Amaranthus retroflexus [13]; 20 g/ha
  Pre-emergence action against AMARE: 100%
Amaranthus retroflexus [13]; 80 g/ha
  Pre-emergence action against AMARE: 100%
Viola tricolor [14]; 80 g/ha
  Pre-emergence action against VIOTR: 100%

## CCN(CC)C(=O)c1c(C(F)(F)F)ccc(C(=O)Nc2nnnn2CC)c1Cl [Example 2-135]
Matricaria inodora [15]; 20 g/ha
  Post-emergence action against MATIN in %: 80%
Echinochloa crus-galli [1]; 20 g/ha
  Post-emergence action against ECHCG in %: 80%
Echinochloa crus-galli [2]
  Pre-emergence action against ECHCG: 100%
Digitaria sanguinalis [3]; 5 g/ha
  Post-emergence action against DIGSA in %: 80%
Digitaria sanguinalis [3]; 20 g/ha
  Post-emergence action against DIGSA in %: 90%
Digitaria sanguinalis [4]; 20 g/ha
  Pre-emergence action against DIGSA: 80%
Digitaria sanguinalis [4]; 80 g/ha
  Pre-emergence action against DIGSA: 90%
Avena fatua [5]
  Post-emergence action against AVEFA in %: 80%
Abutilon theophrasti; 20 g/ha
  Pre-emergence action against ABUTH: 90%
Abutilon theophrasti; 80 g/ha
  Pre-emergence action against ABUTH: 100%
Setaria viridis [6]; 20 g/ha
  Post-emergence action against SETVI in %: 80%
Alopecurus myosuroides [7]; 20 g/ha
  Post-emergence action against ALOMY: 90%
Alopecurus myosuroides [8]
  Pre-emergence action against ALOMY: 90%
Matricaria inodora [9]; 20 g/ha
  Pre-emergence action against MATIN: 90%
Matricaria inodora [9]; 80 g/ha
  Pre-emergence action against MATIN: 100%
Amaranthus retroflexus [10]; 5 g/ha
  Post-emergence action against AMARE in %: 80%
Amaranthus retroflexus [10]; 20 g/ha
  Post-emergence action against AMARE in %: 90%
Setaria viridis [11]
  Pre-emergence action against SETVI: 100%
Amaranthus retroflexus [13]; 20 g/ha
  Pre-emergence action against AMARE: 100%
Amaranthus retroflexus [13]; 80 g/ha
  Pre-emergence action against AMARE: 100%
Viola tricolor [14]; 20 g/ha
  Pre-emergence action against VIOTR: 100%
Viola tricolor [14]; 80 g/ha
  Pre-emergence action against VIOTR: 100%

Source: patent US12599136B2, “Substituted isophthalic acid diamides and their use as herbicides” (Bayer Aktiengesellschaft, priority 2020, dated 2026)
